Source: patent US7285683B2, “Bicyclic and tricyclic cannabinoids” (University of Connecticut, priority 2001, dated 2007)
Read-outs that look alike come from different tables or passages of the source.

Experiments:
[1] = biological target: T1, CB1 cannabinoid receptor (Rattus norvegicus, UniProt P20272); assay: CB1 receptor binding assay, [3H] CP-55,940 displacement, rat forebrain membranes
T1 construct: membranes were prepared from rat forebrain membranes; from tissue; host or cells: rat forebrain
Method: Some inventive analogs were tested for CB2 receptor binding affinity and for CB1 receptor affinity (to determine selectivity). As used herein, “binding affinity” is represented by the IC50 value which is the concentration of an analog required to occupy the 50% of the total number (Bmax) of the receptors. The lower the IC50 value the higher the binding affinity. […] For the CB1 receptor binding studies, membranes were prepared from rat forebrain membranes according to the procedure of P. R. Dodd et al, A Rapid Method for Preparing Synaptosomes: Comparison with Alternative Procedures, Brain Res., 107-118 (1981). The binding of the novel analogues to the CB1 cannabinoid receptor was assessed as described in W. A. Devane et al, Determination and Characterization of a Cannabinoid Receptor in a Rat Brain, Mol. Pharmacol., 34, 605-613 (1988) and A. Charalambous et al, 5′-azido Δ^8- THC: A Novel Photoaffinity Label for the Cannabinoid Receptor, J. Med. Chem., 35, 3076-3079 (1992) with the following changes. The above articles are incorporated by reference herein.
Membranes, previously frozen at −80° C., were thawed on ice. To the stirred suspension was added three volumes of TME (25 mM Tris-HCl buffer, 5 mM MgCl2 and 1 mM EDTA) at a pH 7.4. The suspension was incubated at 4° C. for 30 min. At the end of the incubation, the membranes were pelleted and washed three times with TME.
The treated membranes were subsequently used in the binding assay described below. Approximately 30 μg of membranes were incubated in silanized 96-well microtiter plate with TME containing 0.1% essentially fatty acid-free bovine serum albumin (BSA), 0.8 nM [^3H] CP-55,940, and various concentrations of test materials in a final volume of 200 μL. The assays were incubated for 1 hour at 30° C. and then immediately filtered using Packard Filtermate 196 harvester and Whatman GF/C filterplates and washed with wash buffer (TME) containing 0.5% BSA. Radioactivity was detected using MicroScint 20 scintillation cocktail added directly to the dried filterplates, and the filterplates were counted using a Packard Instruments Top-Count. Nonspecific binding was assessed using 100 nM CP-55,940. Data collected from three independent experiments performed with duplicate determinations was normalized between 100% and 0% specific binding for [^3H] CP-55,940, determined using buffer and 100 nM CP-55,940. The normalized data was analyzed using a 4-parameter nonlinear logistic equation to yield IC50 values. Data from at least two independent experiments performed in duplicate was used to calculate IC50 values which were converted to Ki values using the assumptions of Cheng et al, Relationship Between the Inhibition Constant (Ki) and the concentration of Inhibitor which causes 50% Inhibition (IC50) of an Enzymatic Reaction, Biochem. Pharmacol., 22, 3099-3102, (1973), which is incorporated by reference herein.

[2] = biological target: T2, CB2 receptor (Mus musculus, UniProt P47936); assay: CB2 receptor binding assay, [3H] CP-55,940 displacement, mouse spleen membranes
T2 construct: membranes were prepared from frozen mouse spleen; from tissue; host or cells: mouse spleen

[3] = Table 1, bicyclic-cannabinoid analogs, rat forebrain membranes, 0.8 nM [3H] CP-55,940, read-out: Ki in nM for the CB1 Receptor

T1 sequence (P20272 whole entry): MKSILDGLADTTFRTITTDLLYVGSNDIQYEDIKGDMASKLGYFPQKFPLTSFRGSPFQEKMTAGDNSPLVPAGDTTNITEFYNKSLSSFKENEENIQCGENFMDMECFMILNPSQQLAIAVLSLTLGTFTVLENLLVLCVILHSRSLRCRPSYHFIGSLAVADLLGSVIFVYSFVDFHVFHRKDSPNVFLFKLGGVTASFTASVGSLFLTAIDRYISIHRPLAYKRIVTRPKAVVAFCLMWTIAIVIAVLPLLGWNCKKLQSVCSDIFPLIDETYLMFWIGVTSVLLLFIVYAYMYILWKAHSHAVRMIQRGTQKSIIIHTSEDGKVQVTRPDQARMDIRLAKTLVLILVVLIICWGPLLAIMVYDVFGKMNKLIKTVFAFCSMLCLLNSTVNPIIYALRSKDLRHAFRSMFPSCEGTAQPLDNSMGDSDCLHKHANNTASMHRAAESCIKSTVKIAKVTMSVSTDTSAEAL
T2 sequence (P47936 whole entry): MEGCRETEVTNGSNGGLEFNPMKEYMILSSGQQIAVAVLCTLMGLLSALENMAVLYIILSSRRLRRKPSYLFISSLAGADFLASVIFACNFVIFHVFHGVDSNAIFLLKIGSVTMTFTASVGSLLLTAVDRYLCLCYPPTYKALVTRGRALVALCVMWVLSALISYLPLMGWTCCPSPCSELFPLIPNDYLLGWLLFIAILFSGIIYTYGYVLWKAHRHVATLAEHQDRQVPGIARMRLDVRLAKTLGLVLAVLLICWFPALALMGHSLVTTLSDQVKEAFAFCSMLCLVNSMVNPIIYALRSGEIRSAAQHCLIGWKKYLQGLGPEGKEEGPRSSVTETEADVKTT

SMILES | Ki [1] [nM] | Ki [2] [nM] | melting point | Ki [1, 3] [nM] | Ki ([1]; Table 2, hexahydrocannabinol analogs, rat forebrain membranes, 0.8 nM [3H] CP-55,940, read-out: Ki in nM for the CB1 Receptor) [nM]
CC(C)(CCCCCCBr)c1cc(O)c2c(c1)OC(C)(C)[C@@H]1CCC(=O)C[C@@H]21 (relative stereo) [Compound 4d, (−)-trans-3-(7′-bromo-1′,1′-dimethylheptyl)-6,6a,7,8,10,10a-hexahydro-1-hydroxy-6,6-dimethyl-9H-dibenzo[b,d]pyran-9-one] | 1 | 11.8 |  |  | 
CCCCCCC1(c2cc(O)c3c(c2)OC(C)(C)[C@@H]2CCC(=O)C[C@@H]32)SCCS1 (single isomer, unassigned) [Compound 4c, (−)-trans-3-(2-hexyl-1,3-dithiolan-2-yl)-6,6a,7,8,10,10a-hexahydro-1-hydroxy-6,6-dimethyl-9H-dibenzo[b,d]pyran-9-one] | 11.7 | 2.3 | 62 to 64 °C (dec.) |  | 
CCCCCCC1(c2cc(O)c([C@@H]3CC(=O)[C@@H]4C[C@H]3C4(C)C)c(O)c2)CCCC1 [Compound 2a, (4R)-4-[4-(1′,1′-cyclopentylheptyl)-2,6-dihydroxyphenyl]-6,6-dimethyl-2-norpinanone] | 50.6 | 0.4 | 187 to 188 °C |  | 
CCCCC=CC1(c2cc(O)c([C@@H]3CC(=O)[C@@H]4C[C@H]3C4(C)C)c(O)c2)CCCC1 [Compound 2b, (4R)4-[4-(1′,1′-cyclopentylhept-2′-enyl)-2,6-dihydroxyphenyl]-6,6-dimethyl-2-norpinanone] | 74.5 | 0.4 | 167 to 168 °C |  | 
CCCCCCC1(c2cc(O)c([C@@H]3CC(=O)C4CC3C4(C)C)c(O)c2)SCCS1 (stereo partly drawn) [Compound 2c, (4R)-4-[4-(2-hexyl-1,3-dithiolan-2-yl)-2,6-dihydroxyphenyl]-6,6-dimethyl-2-norpinanone] |  | 10.9 | 160 to 161 °C (dec.) | 224 | 
CC(C)(CCCCCCBr)c1cc(O)c([C@@H]2CC(=O)[C@@H]3C[C@H]2C3(C)C)c(O)c1 [Compound 2d, (4R)4-[4-(7′-bromo-1′,1′-dimethylheptyl)-2,6-dihydroxyphenyl]-6,6-dimethyl-2-norpinanone] | 10.6 | 9.3 |  |  | 
C#CCCCCC(C)(C)c1cc(O)c([C@@H]2CC(=O)[C@@H]3C[C@H]2C3(C)C)c(O)c1 [Compound 2e, (4R)-4-[4-(1′,1′-dimethylhept-6′-ynyl)-2,6-dihydroxyphenyl]-6,6-dimethyl-2-norpinanone] | 30.8 | 0.2 |  |  | 
CCCCCCC1(c2cc(O)c([C@@H]3CC(O)[C@@H]4C[C@H]3C4(C)C)c(O)c2)SCCS1 (stereo partly drawn) [Compound 3, (4R)4-[4-(2-hexyl-1,3-dithiolan-2-yl)-2,6-dihydroxyphenyl]-6,6-dimethyl-2β-norpinanol and (4R)-4-[4-(2-hexyl-1,3-dithiolan-2-yl)-2,6-dihydroxyphenyl]-6,6-dimethyl-2α-norpinanol] |  | 76.8 |  | 133 | 
CCCCCCC1(c2cc(O)c3c(c2)OC(C)(C)[C@@H]2CCC(=O)C[C@@H]32)CCCC1 [Compound 4a, (−)-trans-3-(1′,1′-cyclopentylheptyl)-6,6a,7,8,10,10a-hexahydro-1-hydroxy-6,6-dimethyl-9H-dibenzo[b,d]pyran-9-one] | 0.1 | 2.6 |  |  | 
CCCCC=CC1(c2cc(O)c3c(c2)OC(C)(C)[C@@H]2CCC(=O)C[C@@H]32)CCCC1 [Compound 4b, (−)-trans-3-(1′,1′-cyclopentylhept-2′-enyl)-6,6a,7,8,10,10a-hexahydro-1-hydroxy-6,6-dimethyl-9H-dibenzo[b,d]pyran-9-one] | 0.2 | 0.2 |  |  | 
C#CCCCCC(C)(C)c1cc(O)c2c(c1)OC(C)(C)[C@@H]1CCC(=O)C[C@@H]21 [Compound 4e, (−)-trans-3-(1′,1′-dimethylhept-6′-ynyl)-6,6a,7,8,10,10a-hexahydro-1-hydroxy-6,6-dimethyl-9H-dibenzo[b,d]pyran-9-one] | 10.7 | 4.1 |  |  | 
CCCCCCC1(c2cc(O)c3c(c2)OC(C)(C)[C@@H]2CC[C@@H](O)C[C@@H]32)SCCS1 [Compound 5, 6a,7,8,9,10,10a-Hexahydro-3-(2-hexyl-1,3-dithiolan-2-yl)-6,6-dimethyl-6H-dibenzo[b,d]pyran-1,9β-diol] |  | 13.9 |  |  | 
C#CCCCCC(C)(C)c1cc(O)c2c(c1)OC(C)(C)[C@@H]1CC[C@H](O)C[C@@H]21 [Compound 6e, 6a,7,8,9,10,10a-Hexahydro-3-(1′,1′-dimethylhept-6′-ynyl)-6,6-dimethyl-6H-dibenzo[b,d]pyran-1,9α-diol] |  | 12 |  |  | 11.3
CC(C)(CCCCCCBr)c1cc(O)c2c(c1)OC(C)(C)[C@@H]1CC[C@@H](N=[N+]=[N-])C[C@@H]21 [Compound 7d, 1-Hydroxy-3-(7′-bromo-1′,1′-dimethylheptyl)-6,6-dimethyl-9β-azido-6a,7,8,8,10,10a-hexahydro-6H-dibenzo[b,d]pyran] | 1.6 | 13.7 |  |  | 
CCCCCCC(C)(C)c1cc(O)c2c(c1)OC(C)(C)[C@@H]1CC[C@@H](N=[N+]=[N-])C[C@@H]21 [Compound 7g, 1-Hydroxy-3-(1′,1′-dimethylheptyl)-6,6-dimethyl-9β-azido-6a,7,8,8,10,10a-hexahydro-6H-dibenzo[b,d]pyran] | 5 | 10.2 |  |  | 
CC(C)(CCCCCCI)c1cc(O)c2c(c1)OC(C)(C)[C@@H]1CC[C@@H](N=[N+]=[N-])C[C@@H]21 [Compound 8, 1-Hydroxy-3-(7′-iodo-1′,1′-dimethylheptyl)-6,6-dimethyl-9β-azido-6a,7,8,8,10,10a-hexahydro-6H-dibenzo[b,d]pyran] | 0.8 | 0.9 |  |  | 
CC(C)(CCCCC=CI)c1cc(O)c2c(c1)OC(C)(C)[C@@H]1CC[C@@H](N=[N+]=[N-])C[C@@H]21 [Compound 9, 1-Hydroxy-3-(7′-iodo-1′,1′-dimethylhept-6′-enyl)-6,6-dimethyl-9β-azido-6a,7,8,8,10,10a-hexahydro-6H-dibenzo[b,d]pyran] | 0.7 | 0.7 |  |  | 
